From paper PMC6701155, “New perspectives on the plant PARP family: Arabidopsis PARP3 is inactive, and PARP1 exhibits predominant poly (ADP-ribose) polymerase activity in response to DNA damage” (BMC Plant Biology, 2019)

Experiments:
AtPARP1 (TRXH-AtPARP1) = molecular target: T1, AtPARP1 (TRXH-AtPARP1) (Arabidopsis thaliana, UniProt Q9ZP54); test: auto-PARylation assay, immunoblot with anti-pan-ADPR reagent; type: biochemical; conditions: 20 mM 3-AB, 1 mM NAD+, 500 nM broken DNA, 25 °C, pH 7.5, Mg2+
T1 construct: gene PARP1; full-length coding region in pET32a(+), N-terminal thioredoxin-His (TRXH) tag kept, E. coli Origami (DE3), nickel-purified
T1 sequence (Q9ZP54 1-983): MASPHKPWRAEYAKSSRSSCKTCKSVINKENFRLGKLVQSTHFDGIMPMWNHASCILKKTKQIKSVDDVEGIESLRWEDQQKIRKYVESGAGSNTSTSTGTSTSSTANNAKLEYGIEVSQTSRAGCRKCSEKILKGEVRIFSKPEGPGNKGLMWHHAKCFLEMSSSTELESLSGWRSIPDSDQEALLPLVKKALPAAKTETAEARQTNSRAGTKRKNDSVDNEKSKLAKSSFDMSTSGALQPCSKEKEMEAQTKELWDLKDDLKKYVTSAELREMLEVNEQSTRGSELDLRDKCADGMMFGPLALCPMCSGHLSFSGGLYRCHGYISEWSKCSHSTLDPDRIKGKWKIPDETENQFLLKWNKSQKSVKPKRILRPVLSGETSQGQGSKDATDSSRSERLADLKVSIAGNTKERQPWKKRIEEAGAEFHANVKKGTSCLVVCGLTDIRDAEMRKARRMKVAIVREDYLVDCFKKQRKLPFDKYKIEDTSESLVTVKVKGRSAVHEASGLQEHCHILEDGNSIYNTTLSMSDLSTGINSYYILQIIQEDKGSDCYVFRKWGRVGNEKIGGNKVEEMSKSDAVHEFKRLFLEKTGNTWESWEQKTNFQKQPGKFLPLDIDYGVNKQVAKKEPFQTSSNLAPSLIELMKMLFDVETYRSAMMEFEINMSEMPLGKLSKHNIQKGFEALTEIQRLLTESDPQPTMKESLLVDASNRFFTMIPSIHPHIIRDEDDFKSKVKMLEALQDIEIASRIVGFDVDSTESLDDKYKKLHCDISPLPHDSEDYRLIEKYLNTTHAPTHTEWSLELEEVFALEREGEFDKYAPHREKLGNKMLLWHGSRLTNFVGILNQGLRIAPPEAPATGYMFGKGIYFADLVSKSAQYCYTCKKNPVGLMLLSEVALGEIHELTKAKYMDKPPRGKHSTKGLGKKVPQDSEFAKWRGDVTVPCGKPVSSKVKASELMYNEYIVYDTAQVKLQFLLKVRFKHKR

AtPARP2 (TRXH-AtPARP2) = molecular target: T2, AtPARP2 (TRXH-AtPARP2) (Arabidopsis thaliana, UniProt Q11207); test: as above; type: biochemical; conditions: 1 mM NAD+, 500 nM broken DNA, 25 °C, pH 7.5, Mg2+
T2 construct: gene PARP2; an MBP/MBD fusion was also tested
T2 sequence (Q11207 whole entry, the tested form may be a part): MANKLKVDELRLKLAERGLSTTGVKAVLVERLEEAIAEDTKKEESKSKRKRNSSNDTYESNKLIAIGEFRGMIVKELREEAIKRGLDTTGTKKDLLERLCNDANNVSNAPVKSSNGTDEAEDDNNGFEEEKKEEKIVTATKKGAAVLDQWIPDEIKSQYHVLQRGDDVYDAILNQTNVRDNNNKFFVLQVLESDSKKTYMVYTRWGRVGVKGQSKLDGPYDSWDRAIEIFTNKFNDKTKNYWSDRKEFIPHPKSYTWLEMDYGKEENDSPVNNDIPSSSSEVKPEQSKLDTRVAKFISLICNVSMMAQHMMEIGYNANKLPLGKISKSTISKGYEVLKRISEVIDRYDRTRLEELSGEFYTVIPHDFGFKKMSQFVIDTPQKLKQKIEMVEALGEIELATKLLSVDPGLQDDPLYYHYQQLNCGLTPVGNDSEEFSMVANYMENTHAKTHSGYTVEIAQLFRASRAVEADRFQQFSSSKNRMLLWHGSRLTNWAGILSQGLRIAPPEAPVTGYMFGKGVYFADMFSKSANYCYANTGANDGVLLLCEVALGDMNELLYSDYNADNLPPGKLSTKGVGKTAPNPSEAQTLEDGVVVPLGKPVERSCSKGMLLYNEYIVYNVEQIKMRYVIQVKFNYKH

Compound	auto-PARylation assay, immunoblot with anti-pan-ADPR reagent (AtPARP1 (TRXH-AtPARP1))	auto-PARylation assay, immunoblot with anti-pan-ADPR reagent (AtPARP2 (TRXH-AtPARP2))
NC(=O)c1cccc(N)c1 [3-AB]	The signal was abolished by the PARP inhibitor 3-AB	
NC(=O)c1ccc[n+]([C@@H]2O[C@H](COP(=O)(O)OP(=O)(O)OC[C@H]3O[C@@H](n4cnc5c(N)ncnc54)[C@H](O)[C@@H]3O)[C@@H](O)[C@H]2O)c1 [NAD^+]		AtPARP2 produced shorter PAR chains than AtPARP1 within the same incubation time periods
